Laboratory results as given in patent US8575158B2, “1-phenyl-substituted heterocyclyl derivatives and their use as prostaglandin D2 receptor modulators” (Actelion Pharmaceuticals Ltd., priority 2010, dated 2013).

Target: T1, hCRTH2 receptor (Homo sapiens, UniProt Q9Y5Y4)
T1 construct: expressed in transfected cells; host or cells: HEK293
T1 sequence (Q9Y5Y4 1-395): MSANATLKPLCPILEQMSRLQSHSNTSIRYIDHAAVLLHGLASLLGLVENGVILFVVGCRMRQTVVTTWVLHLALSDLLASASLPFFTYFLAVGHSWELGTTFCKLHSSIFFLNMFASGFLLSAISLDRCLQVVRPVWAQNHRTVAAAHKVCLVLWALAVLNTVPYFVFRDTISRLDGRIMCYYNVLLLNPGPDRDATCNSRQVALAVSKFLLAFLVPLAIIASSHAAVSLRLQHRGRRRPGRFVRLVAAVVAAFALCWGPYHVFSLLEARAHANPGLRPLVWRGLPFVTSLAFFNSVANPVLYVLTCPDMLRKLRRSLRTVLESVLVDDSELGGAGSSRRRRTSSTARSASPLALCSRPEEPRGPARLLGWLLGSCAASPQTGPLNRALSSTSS
Experiment: Radioligand displacement assay (3H-PGD2) on hCRTH2 receptor membranes
Type: binding
Details: antagonistic activity, 3H-PGD2 radioligand displacement, HEK293-hCRTH2 membranes

| Compound | IC50 |
| --- | --- |
| O=C(O)COc1ccc(Cl)cc1C1c2ccccc2CCN1C(=O)COc1ccc(F)cc1 (racemic) [Example 407] | 0.0349 µM |
| Cc1cccc(CCC(=O)N2CCc3ccccc3C2c2cc(Cl)ccc2OCC(=O)O)n1 (racemic) [Example 408] | 0.177 µM |
| O=C(O)COc1ccc(Cl)cc1C1c2ccccc2CCN1C(=O)COc1ccccc1 (racemic) [Example 409] | 0.074 µM |
| O=C(O)COc1ccc(Cl)cc1C1c2ccccc2CCN1C(=O)COc1ccccc1F (racemic) [Example 410] | 0.0707 µM |
| O=C(O)COc1ccc(Cl)cc1C1c2ccccc2CCN1C(=O)COc1cccc2cccnc12 (racemic) [Example 411] | 0.0257 µM |
| O=C(O)COc1ccc(Cl)cc1C1c2ccccc2CCN1C(=O)COc1ccc(Cl)cc1 (racemic) [Example 412] | 0.0402 µM |
| O=C(O)COc1ccc(Cl)cc1C1c2ccccc2CCN1C(=O)COc1cccc(Cl)c1 (racemic) [Example 413] | 0.0705 µM |
| COc1ccc(OCC(=O)N2CCc3ccccc3C2c2cc(Cl)ccc2OCC(=O)O)cc1 (racemic) [Example 415] | 0.21 µM |
| O=C(O)COc1ccc(Cl)cc1C1c2ccccc2CCN1C(=O)COc1cccnc1 (racemic) [Example 416] | 0.215 µM |
| Cc1ccc(OCC(=O)N2CCc3cc(F)ccc3C2c2cc(Cl)ccc2OCC(=O)O)c(C)n1 (racemic) [Example 432] | 0.0406 µM |
| COc1ccc2[nH]cc(CCC(=O)N3CCc4cc(F)ccc4C3c3cc(Cl)ccc3OCC(=O)O)c2c1 (racemic) [Example 433] | 0.0901 µM |
| Cn1cc(CCC(=O)N2CCc3cc(F)ccc3C2c2cc(Cl)ccc2OCC(=O)O)c2ccccc21 (racemic) [Example 434] | 0.0333 µM |

Second part, the molecule after the results:

| IC50 | Compound |
| --- | --- |
| 0.126 µM | Cc1ccc(OCC(=O)N2CCc3ccccc3C2c2cc(Cl)ccc2OCC(=O)O)cc1 (racemic) [Example 414] |
| 0.187 µM | COc1ccc([C@@H]2C[C@H]2C(=O)N2CCc3ccccc3C2c2cc(Cl)ccc2OCC(=O)O)cc1 (mixture of isomers) [Example 417] |
| 0.0163 µM | O=C(O)COc1ccc(Cl)cc1C1c2ccccc2CCN1C(=O)[C@@H]1C[C@H]1c1ccc(F)cc1 (mixture of isomers) [Example 418] |
| 0.958 µM | O=C(O)COc1ccc(Cl)cc1C1c2ccccc2CCN1C(=O)[C@@H]1C[C@H]1c1ccc(C(F)(F)F)cc1 (mixture of isomers) [Example 419] |
| 0.103 µM | Cc1ccc([C@@H]2C[C@H]2C(=O)N2CCc3ccccc3C2c2cc(Cl)ccc2OCC(=O)O)cc1 (mixture of isomers) [Example 420] |
| 0.024 µM | O=C(O)COc1ccc(Cl)cc1C1c2ccccc2CCN1C(=O)[C@@H]1C[C@H]1c1cccc(Cl)c1 (mixture of isomers) [Example 421] |
| 0.00558 µM | Cc1ccccc1[C@@H]1C[C@H]1C(=O)N1CCc2ccccc2C1c1cc(Cl)ccc1OCC(=O)O (mixture of isomers) [Example 422] |
| 0.00662 µM | O=C(O)COc1ccc(Cl)cc1C1c2ccccc2CCN1C(=O)[C@@H]1C[C@H]1c1ccccc1C(F)(F)F (mixture of isomers) [Example 423] |
| 0.012 µM | O=C(O)COc1ccc(Cl)cc1C1c2ccccc2CCN1C(=O)[C@@H]1C[C@H]1c1cccc(F)c1 (mixture of isomers) [Example 424] |
| 0.0306 µM | COc1cccc([C@@H]2C[C@H]2C(=O)N2CCc3ccccc3C2c2cc(Cl)ccc2OCC(=O)O)c1 (mixture of isomers) [Example 425] |
| 0.0938 µM | O=C(O)COc1ccc(Cl)cc1C1c2ccccc2CCN1C(=O)[C@@H]1C[C@H]1c1cccc(C(F)(F)F)c1 (mixture of isomers) [Example 426] |
| 0.0466 µM | Cc1cccc([C@@H]2C[C@H]2C(=O)N2CCc3ccccc3C2c2cc(Cl)ccc2OCC(=O)O)c1 (mixture of isomers) [Example 427] |
| 0.00133 µM | O=C(O)COc1ccc(Cl)cc1C1c2ccc(F)cc2CCN1C(=O)[C@@H]1C[C@H]1c1ccccc1 (mixture of isomers) [Example 428] |
| 0.00221 µM | O=C(O)COc1ccc(Cl)cc1C1c2ccc(F)cc2CCN1C(=O)[C@@H]1C[C@H]1c1ccccc1C(F)(F)F (mixture of isomers) [Example 429] |
| 0.00356 µM | Cc1ccccc1[C@@H]1C[C@H]1C(=O)N1CCc2cc(F)ccc2C1c1cc(Cl)ccc1OCC(=O)O (mixture of isomers) [Example 431] |
